Reference: patent US20070243244A1 (priority 2005, published 2007)
Like-named read-outs stand apart in the source and are kept apart here.

Columns and labels:
[1] = pharmacokinetics after single oral (gavage) and intravenous dose in 0.9% saline (Example 2); set-up: species or system cynomolgus monkeys; conditions: male, cynomolgus monkey, in vivo; for Vd: Vdss
Description: Four male cynomolgus monkeys were used in the study. […] The dosing volume was 10 mL/kg.
By using 0.2 mL of monkey plasma sample, the assay limit of quantitation (LOQ) was 100 ng/mL and the curve range was between 100 and 6400 ng/mL.
AUC0-4 was calculated by AUC0-t+Ct/λ, where AUC0-t was the AUC from time 0 to t, the last quantifiable time point and Ct was the last quantifiable concentration. […] Systemic clearance (CLT) after the iv dose was calculated using the formula of Dose/AUC0-4.

solubility in water = format: physicochemical; conditions: over the entire pH range of 1 to 14
[2] = cell monolayer permeability studies; format: in vitro ADME; conditions: 1 mM in ethanol and buffer, pH 6 to 6.4
[3] = systemic clearance in dogs; conditions: dog, in vivo, after a single 5 mg/kg dose, read-out: systemic clearance (ClT) in dogs (converted)
[4] = oral bioavailability of encapsulated microparticulate (100 mg) enteric coated formulation (Example 3); set-up: species or system cynomolgus monkeys; conditions: cynomolgus monkey, in vivo
Description: Each 100 mg capsule contained 478.5 mg enteric coated granules. […] The monkeys were housed in Bioresources vivarium with free access to water and food. The four monkeys received the oral formulation described above (1×100 mg multi-particulate capsule). The formulation was administered with 10 mL water. All monkeys were fasted overnight prior to dosing (with free access to water) and were fed 4 hours after dose administration. […] Approximately 3 mL of blood were drawn into Vacutainer® tubes containing sodium heparin as the anticoagulant. Plasma was separated in a refrigerated centrifuge and stored at -70° C. Plasma samples were delivered to the assay site packed on dry ice.

[5] = iv, 5 mg/kg, Plasma Concentrations
[6] = po, 15 mg/kg, Plasma Concentrations
[7] = po, 15 mg/kg, Plasma Concentrations, Mean
[8] = cynomolgus, iv, 5 mg/kg, Plasma Concentrations
[9] = cynomolgus, iv, 5 mg/kg, Plasma Concentrations, Mean

CN(C)c1cc(NC(=O)CNC(C)(C)C)c(O)c2c1C[C@H]1C[C@H]3[C@H](N(C)C)C(O)=C(C(N)=O)C(=O)[C@@]3(O)C(O)=C1C2=O [Tigecycline]
AUC ([1]; 15 mg/kg): 18300 ng·h/mL | Cmax ([1]; 15 mg/kg, Cmax): 15100 ng/mL | half-life ([1]; 15 mg/kg, t1/2): 14.1 h | AUC(0-t) ([1]; iv, 5 mg/kg): 18200 ng·h/mL | ClT, Mean ([1]; iv, 5 mg/kg): 4.67 mL/min/kg | MRTiv, Mean ([1]; iv, 5 mg/kg): 12.8 h | Plasma Concentrations ([1]; iv, 5 mg/kg, 0 hr): <100 ng/mL | concentration at 0 hr [1, 5]: < 100 ng/mL | concentration at 0.5 hr [1, 5]: 3340 ng/mL | concentration at 1 hr [1, 5]: 1660 ng/mL | concentration at 12 hr [1, 5]: 265 ng/mL | concentration at 24 hr [1, 5]: 155 ng/mL | concentration at 32 hr [1, 5]: < 100 ng/mL | concentration at 48 hr [1, 5]: < 100 ng/mL | Vd ([1]; iv, 5 mg/kg, Mean): 3.47 L/kg | half-life ([1]; iv, 5 mg/kg, t1/2): 11.4 to 19.1 h | half-life ([1]; iv, 5 mg/kg, t1/2, Mean): 14.1 h | AUC ([1]; po, 15 mg/kg): 163 ng·h/mL | detected in samples up to (time post-dose) ([1]; po, 15 mg/kg): up to 2 hours | Plasma Concentrations ([1]; po, 15 mg/kg, 0 h): <100 ng/mL | Plasma Concentrations ([1]; po, 15 mg/kg, 4 hr): <100 ng/mL | Plasma Concentrations ([1]; po, 15 mg/kg, 6 hr): <100 ng/mL | Plasma Concentrations ([1]; po, 15 mg/kg, 8 hr): <100 ng/mL | Plasma Concentrations ([1]; po, 15 mg/kg, 12 hr): <100 ng/mL | Plasma Concentrations ([1]; po, 15 mg/kg, 24 h): <100 ng/mL | Plasma Concentrations ([1]; po, 15 mg/kg, 32 h): <100 ng/mL | Plasma Concentrations ([1]; po, 15 mg/kg, 48 h): <100 ng/mL | AUC(0-t) ([1]; po, 15 mg/kg, AUC0-t, Mean): 163 ng·h/mL | Cmax ([1]; po, 15 mg/kg, Cmax): 163 ng/mL | concentration at 0 h [1, 6]: < 100 ng/mL | concentration at 0.5 h [1, 6]: < 100 ng/mL | concentration at 1 hr [1, 6]: 114 ng/mL | concentration at 2 hr [1, 6]: 131 ng/mL | concentration at 4 hr [1, 6]: < 100 ng/mL | concentration at 6 hr [1, 6]: < 100 ng/mL | concentration at 8 hr [1, 6]: < 100 ng/mL | concentration at 12 hr [1, 6]: < 100 ng/mL | concentration at 24 h [1, 6]: < 100 ng/mL | concentration at 32 h [1, 6]: < 100 ng/mL | concentration at 48 h [1, 6]: < 100 ng/mL | concentration at 0 h [1, 7]: 0 ng/mL | concentration at 0.5 h [1, 7]: 55.5 ng/mL | concentration at 1 h [1, 7]: 131 ng/mL | concentration at 2 h [1, 7]: 118 ng/mL | concentration at 4 h [1, 7]: 0 ng/mL | concentration at 6 h [1, 7]: 0 ng/mL | concentration at 8 h [1, 7]: 0 ng/mL | concentration at 12 h [1, 7]: 0 ng/mL | concentration at 24 h [1, 7]: 0 ng/mL | concentration at 32 h [1, 7]: 0 ng/mL | concentration at 48 h [1, 7]: 0 ng/mL | Tmax ([1]; po, 15 mg/kg, tmax): 1.8 h | Tmax ([1]; po, 15 mg/kg, tmax, Mean): 1.8 h | concentration at 2 hr ([1]; monkeys, single oral (gavage) dose of 15 mg/kg, 2 hr, individual animals, read-out: Plasma Concentrations): 191 ng/mL | Cmax ([1]; cynomolgus, iv, 5 mg/kg, Cmax, Mean): 15100 ng/mL | AUC(0-t) ([1]; cynomolgus, iv, 5 mg/kg, Mean): 18300 ± 3030 ng·h/mL | concentration at 2 hr [1, 8]: 1010 ng/mL | concentration at 4 hr [1, 8]: 588 ng/mL | concentration at 6 hr [1, 8]: 431 ng/mL | concentration at 8 hr [1, 8]: 372 ng/mL | concentration at 0 hr [1, 9]: 0 ng/mL | concentration at 0.083 hr [1, 9]: 15100 ng/mL | concentration at 0.5 hr [1, 9]: 2250 ng/mL | concentration at 1 hr [1, 9]: 1400 ng/mL | concentration at 2 hr [1, 9]: 1090 ng/mL | concentration at 4 hr [1, 9]: 697 ng/mL | concentration at 6 hr [1, 9]: 499 ng/mL | concentration at 8 hr [1, 9]: 392 ng/mL | concentration at 12 hr [1, 9]: 264 ng/mL | concentration at 24 hr [1, 9]: 162 ng/mL | concentration at 32 hr [1, 9]: 31.8 ng/mL | concentration at 48 hr [1, 9]: 27 ng/mL | Vd ([1]; cynomolgus, iv, 5 mg/kg, Mean): 3.47 ± 1.09 L/kg | half-life ([1]; cynomolgus, iv, 5 mg/kg, t1/2): 12.8 h | half-life ([1]; cynomolgus, iv, 5 mg/kg, t1/2, Mean): 14.1 ± 3.4 h | Tmax ([1]; cynomolgus, po, 15 mg/kg): 1.0 h | Cmax ([1]; cynomolgus, po, 15 mg/kg, Cmax): 178 ng/mL | Cmax ([1]; cynomolgus, po, 15 mg/kg, Cmax, Mean): 163 ± 27.1 ng/mL | Tmax ([1]; cynomolgus, po, 15 mg/kg, tmax): 1 to 2 h | Cmax ([1]; cynomolgus, monkeys, single oral (gavage) dose of 15 mg/kg, individual animals, read-out: Cmax): 191 ng/mL | solubility (solubility in water): > 295 mg/mL | Papp at 1 mM [2]: 0.04 ×10⁻⁶ cm/s | clearance [3]: ~4.33 mL/min/kg | concentration at 1 hr ([4]; fasted male cynomolgus monkeys, single oral dose 100 mg encapsulated microparticulate capsule, 1 hr, individual animals, read-out: Plasma Concentrations): 113 ng/mL | concentration at 3 hr ([4]; fasted male cynomolgus monkeys, single oral dose 100 mg encapsulated microparticulate capsule, 3 hr, individual animals, read-out: Plasma Concentrations): 174 ng/mL | concentration at 4 hr ([4]; fasted male cynomolgus monkeys, single oral dose 100 mg encapsulated microparticulate capsule, 4 hr, individual animals, read-out: Plasma Concentrations): 113 ng/mL | AUC/Dose, Mean ([4]; male): 174 | Cmax/Dose, Mean ([4]; male): 14.0 | AUC/Dose ([4]; male, po, 16 mg/kg): 174 | Cmax/Dose ([4]; male, po, 16 mg/kg): 14.0 | AUC ([4]; male, po, 16 mg/kg, AUC0/t or 0-∞): 2830 ng·h/mL | bioavailability ([4]; male, po, 16 mg/kg, Bioavailability): 4.8% | Cmax ([4]; male, po, 16 mg/kg): 225 ng/mL | bioavailability ([4]; male, po, 16 mg/kg, absolute bioavailability of tigecycline in the blood): 5% | half-life ([4]; male, po, 16 mg/kg, t1/2): 12.1 h | Tmax ([4]; male, po, 16 mg/kg, tmax): 2.25 h | Tmax ([4]; male, po, 100 mg): 3.0 h | AUC(0-inf) ([4]; male, po, 100 mg, AUC0-∞, Mean): 2830 ng·h/mL | AUC ([4]; male, po, 100 mg, AUC0/24, Mean): 2130 ng·h/mL | Cmax ([4]; male, po, 100 mg, Mean): 225 ng/mL | half-life ([4]; male, po, 100 mg, T1/2): 9.48 h | half-life ([4]; male, po, 100 mg, T1/2, Mean): 12.1 h | Tmax ([4]; male, po, 100 mg, Tmax): 2 h | Tmax ([4]; male, po, 100 mg, Tmax, Mean): 2.25 h
